Laboratory results taken from US4489090A, “Dibenzocycloalkanamido and dibenzothioxanthenyl benzoic acids” (American Cyanamid Company, priority 1983, dated 1984).

Molecular target: T1, fatty acyl CoA:cholesterol acyl transferase (ACAT) (Rattus norvegicus, UniProt O70536)
T1 construct: The supernatant, containing the microsomal fraction, served as the source of the cholesterol-esterifying enzyme; from tissue; host or cells: rat adrenals, homogenate supernatant (1,000 x g) containing the microsomal fraction
T1 sequence (O70536 1-545): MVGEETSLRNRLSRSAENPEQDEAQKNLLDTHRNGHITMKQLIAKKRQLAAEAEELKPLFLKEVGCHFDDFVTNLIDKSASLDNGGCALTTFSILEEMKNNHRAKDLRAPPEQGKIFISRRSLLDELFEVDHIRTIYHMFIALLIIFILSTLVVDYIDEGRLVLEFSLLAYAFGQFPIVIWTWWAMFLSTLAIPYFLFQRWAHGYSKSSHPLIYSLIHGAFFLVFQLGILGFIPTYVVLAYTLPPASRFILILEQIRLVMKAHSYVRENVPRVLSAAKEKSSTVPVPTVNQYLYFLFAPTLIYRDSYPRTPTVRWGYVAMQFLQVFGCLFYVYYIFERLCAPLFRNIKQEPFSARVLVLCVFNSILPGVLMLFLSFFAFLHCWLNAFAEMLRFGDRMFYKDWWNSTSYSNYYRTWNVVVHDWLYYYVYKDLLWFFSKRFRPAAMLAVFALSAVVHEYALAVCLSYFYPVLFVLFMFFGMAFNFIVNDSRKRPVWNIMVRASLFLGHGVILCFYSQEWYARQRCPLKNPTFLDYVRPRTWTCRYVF
Test: Inhibition of enzymatic esterification of cholesterol (ACAT) in rat adrenal supernatant containing the microsomal fraction
Type: biochemical
Settings: final concentration of test compound 5.2 μg./ml., 14C-oleoyl CoA, 37° C., read-out: % INHIBITION (percent inhibition of the ACAT enzyme as compared to control values)
Description: The compounds of the present invention were tested for their ability to inhibit the enzymatic esterification of cholesterol according to the following procedure:
Rat adrenals were homogenized in 0.2M monobasic potassium phosphate buffer, pH 7.4, and centrifuged at 1,000 times gravity for 15 minutes at 5° C. The supernatant, containing the microsomal fraction, served as the source of the cholesterol-esterifying enzyme, fatty acyl CoA:cholesterol acyl transferase (ACAT). A mixture comprising 50 parts of adrenal supernatant, 10 parts of albumin (BSA) (50 mg./ml.), 20 parts of oleoyl CoA (^14 C-0.4 μCi), 3 parts of test compound, and 500 parts of buffer was pre-incubated at 37° C. for 10 minutes. After treatment with 20 parts of oleoyl CoA (^14 C-0.4 μCi), the mixture was incubated at 37° C. for 10 minutes. A control mixture, omitting the test compound, was prepared and treated in the same manner. The lipids from the incubation mixture were extracted into an organic solvent and separated by thin-layer chromatography. The cholesterol ester fraction was counted in a scintillation counter. This procedure is a modification of that described by Hashimoto, et al., Life Scie., 12 (Part II), 1-12 (1973).
The results of this test on representative compounds of this invention appear in Table I. The final concentration of the test compound was 5.2 μg./ml., and effectiveness of the compound is expressed as percent inhibition of the ACAT enzyme as compared to control values.

Going from O=C(C=C1c2ccccc2C=Cc2ccccc21)Nc1ccc(C(=O)O)cc1 [4-(5H-Dibenzo[a,d]cycloheptene-Δ^5,α -acetamido) benzoic acid] to CCOC(=O)c1ccc(NC(=O)C=C2c3ccccc3C=Cc3ccccc32)cc1 [Ethyl 4-(5H-dibenzo[a,d]cycloheptene-Δ^5,α -acetamido) benzoate], the inhibition at 5.2 µg/mL falls from 47% to 20%.

Going from O=C(CC1c2ccccc2Sc2ccccc21)Nc1ccc(C(=O)O)cc1 [4-[Thioxanthene-9-acetamido]benzoic acid, 4-[(9-Thioxanthenyl)acetamido]benzoic acid] to CCOC(=O)c1ccc(NC(=O)CC2c3ccccc3Sc3ccccc32)cc1 [Ethyl 4-[(9-thioxanthenyl)acetamido]benzoate], the inhibition at 5.2 µg/mL falls from 37% to 9%.

In the case of O=C(C=C1c2ccccc2CCc2ccccc21)Nc1ccc(C(=O)O)cc1 [p-(10,11-Dihydro-5H-dibenzo[a,d]cycloheptene-Δ^5,α -acetamido)benzoic acid], the inhibition at 5.2 µg/mL was 51%.
